Results from patent US6469028B1, “Synthesis and use of retinoid compounds having negative hormone and/or anatgonist activities” (Allergan, Inc., priority 1995, dated 2002).

How the values were obtained:
[1] = tested on: TPA-induced Str-AP1-CAT expression; assay: Example 13: anti-AP-1 activity, Str-AP1-CAT and pRS-hRARα in HeLa cells; assay type: cell-based; details: AGN 193109 alone, 10^−10 to 10^−8 M
RARα = biological target: T1, RARα (Homo sapiens, UniProt P10276); assay: Example 8: protease protection analysis; assay type: biochemical; set-up: host or cells: TNT-coupled reticulocyte lysate in vitro transcription-translation; details: ATRA and AGN 193109 100 nM, AGN 193583 1000 nM; trypsin 25, 50 or 100 μg/ml, 10 minutes
T1 sequence (P10276 1-462): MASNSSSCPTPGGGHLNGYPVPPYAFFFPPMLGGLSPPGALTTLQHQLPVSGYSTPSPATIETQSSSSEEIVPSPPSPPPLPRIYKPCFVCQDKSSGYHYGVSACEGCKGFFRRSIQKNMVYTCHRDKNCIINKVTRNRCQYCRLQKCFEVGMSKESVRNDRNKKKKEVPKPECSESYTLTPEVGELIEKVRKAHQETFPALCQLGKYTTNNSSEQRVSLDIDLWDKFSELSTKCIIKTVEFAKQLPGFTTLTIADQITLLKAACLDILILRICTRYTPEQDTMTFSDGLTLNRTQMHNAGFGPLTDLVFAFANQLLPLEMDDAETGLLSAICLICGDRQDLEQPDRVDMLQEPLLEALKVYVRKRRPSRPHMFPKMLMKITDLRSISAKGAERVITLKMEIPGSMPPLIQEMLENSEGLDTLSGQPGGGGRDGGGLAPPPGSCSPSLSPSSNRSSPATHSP
Procedure: A plasmid constructed in the vector pGEM3Z (Pharmacia) and containing the RAR-α cDNA (Giguere et al. Nature 330:624 (1987)), was used in connection with the TNT-coupled reticulocyte lysate in vitro transcription-translation system (Promega) to prepare [^35S]-methionine labeled RAR-α. Limited proteolytic digestion of the labeled protein RAR-α was carried out according to the method described by Keidel et al. in Mol. Cell. Biol. 14:287 (1994). […] After ligand binding, 1 μl of appropriately concentrated trypsin was added to the mixture to give final concentrations of 25, 50 or 100 μg/ml. Samples were incubated at room temperature for 10 minutes and trypsin digestion stopped by addition of SDS-sample buffer. Samples were subjected to polyacrylamide gel electrophoresis and autoradiographed according to standard procedures.

[2] = Example 4: retinoid-induced hypertriglyceridemia (serum triglycerides); assay type: in vivo, rats
Procedure: Male Fischer rats (6-7 weeks old, n=5) were treated by intragastric intubation with corn oil (vehicle), AGN 191659, AGN 193109 or a combination of AGN 191659 and AGN 193109. AGN 191659 and AGN 193109 were given as fine suspensions in corn oil.
Serum was separated from blood by low speed centrifugation. Total serum triglycerides (triglycerides plus glycerol) were measured with a standard spectrophotometric endpoint assay available commercially as a kit and adapted to a 96-well plate format. Serum triglyceride levels are expressed as the mean±SD. Means were compared statistically by one-way analysis of variance followed by Dunnett's test if significant differences were found. Differences were considered significant at P<0.05.

RARβ = biological target: T2, RARβ (Homo sapiens, UniProt P10826); assay: [3H]-ATRA displacement assay, baculovirus expressed receptor; assay type: binding; set-up: made in house; host or cells: baculovirus expression system; details: Table 11
T2 sequence (P10826 1-448 isoform P10826-2): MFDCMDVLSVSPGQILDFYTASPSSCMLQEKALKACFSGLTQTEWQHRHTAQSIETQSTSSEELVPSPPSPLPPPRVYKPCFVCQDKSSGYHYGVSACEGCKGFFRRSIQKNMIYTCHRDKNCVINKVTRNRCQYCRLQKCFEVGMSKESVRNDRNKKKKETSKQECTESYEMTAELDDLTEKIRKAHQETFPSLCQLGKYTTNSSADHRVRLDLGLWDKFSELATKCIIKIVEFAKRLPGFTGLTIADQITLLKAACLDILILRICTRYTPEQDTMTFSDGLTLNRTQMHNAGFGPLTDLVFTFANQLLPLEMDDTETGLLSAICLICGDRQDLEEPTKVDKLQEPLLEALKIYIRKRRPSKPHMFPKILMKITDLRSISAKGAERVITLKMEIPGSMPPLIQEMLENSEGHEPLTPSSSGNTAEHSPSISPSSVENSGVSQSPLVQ

guinea pigs = assay: Example 5: premature epiphyseal plate closure (bone toxicity); assay type: in vivo; details: AGN 191183 0.06 mg/ml + AGN 193109 0.34 mg/ml (5-fold molar excess), osmotic pump, 14 days
Procedure: The osmotic pumps are designed by the manufacturer to deliver ˜5 μl of solution per hour continuously for 14 days.
The animals were euthanized by carbon dioxide asphyxiation 14 days after implantation. The left tibia was removed and placed in 10% buffered formalin. The tibias were decalcified by exposure to a formic acid/formalin solution for 3-4 days, and paraffin sections were prepared. Sections were stained with hematoxylin and eosin by standard methods. The proximal tibial epiphyseal plate was examined and scored as closed or not closed. Epiphyseal plate closure is defined for this purpose as any interruption of the continuity of the epiphyseal growth plate cartilage, i.e., replacement by bone and/or fibroblastic tissue.

[3] = Example 3: recovery from preexisting retinoid toxicity (body weight); assay type: in vivo, mice
Procedure: Groups of these same mice (n=5) were then treated topically either with vehicle or AGN 193109 in vehicle (4 ml/kg) daily for 3 consecutive days beginning on day 3. Mice were weighed on days 1-5 and on day 8. Body weights are expressed as the mean±SD. Means were compared statistically using an unpaired, two-tailed t-test. Differences were considered significant at P<0.05.

[4] = topical AGN 191183 0.13 mg/kg/d days 1-2, then topical AGN 193109 days 3-5, mean±SD

In the case of `Cc1ccc(C2=CCC(C)(C)c3ccc(C#Cc4ccc(C(=O)O)cc4)cc32)cc1` [Compound 60, 4-[(5,6-dihydro-5,5-dimethyl-8-(4-methylphenyl)-2-naphthalenyl)ethynyl]benzoic acid], the “inhibition of AP-1 mediated reporter activity” value [1] is reported as “did not substantially inhibit”, the “pattern of trypsin sensitivity of labeled RAR-α after prebinding” value (RARα) is reported as “a protease protection pattern that was indistinguishable from that produced by prebinding of ATRA” and the “serum triglycerides versus control” value ([2]; AGN 193109 with AGN 191659 at molar ratios of 1:1 and 5:1) is reported as “reduced serum triglycerides to levels that were not significantly different from control”. For the same compound, the “Serum Triglycerides” value ([2]; group B: AGN 193109 19.6 mg/kg oral alone, male Fischer rats) was 52.4 ± 6.3 mg/dL, the “Serum Triglycerides” value ([2]; group D: AGN 193109 3.9 mg/kg + AGN 191659 3.7 mg/kg oral) was 55.7 ± 14.7 mg/dL and the “Serum Triglycerides” value ([2]; group E: AGN 193109 19.6 mg/kg + AGN 191659 3.7 mg/kg oral) was 72.7 ± 8.9 mg/dL. The Kd (RARβ) was 2 nM, the epiphyseal plate closure (guinea pigs) was “completely blocked AGN 191183-induced bone toxicity” and the “body weight relative to vehicle treatment” value ([3]; after AGN 191183-induced weight loss, t-test, P<0.05) was “significantly increased body weight relative to vehicle treatment on days 4 and 5”. The “Body Weight (g) DAY 1” value [3, 4] was 23.9 ± 1.0 g, the “Body Weight (g) DAY 2” value [3, 4] was 23.5 ± 1.2 g and the “Body Weight (g) DAY 3” value [3, 4] was 21.4 ± 0.6 g. For the same compound, the “Body Weight (g) DAY 4” value [3, 4] was 22.2 ± 0.7 g, the “Body Weight (g) DAY 5” value [3, 4] was 22.8 ± 0.8 g and the “Body Weight (g) DAY 8” value [3, 4] was 25.0 ± 1.1 g.
